Data reported in patent US11987588B2, “Modulators of the beta-3 adrenergic receptor useful for the treatment or prevention of heart failure and disorders related thereto” (Arena Pharmaceuticals, Inc., priority 2017, dated 2024).

What follows are molecules tested against Beta-3 Adrenergic Receptor (Homo sapiens (Human), UniProt P13945) (assay: Homogeneous Time-Resolved Fluorescence (HTRF) cAMP antagonist assay, IC50 determination). Details: CHO-K1 cells stably expressing recombinant receptor, isoproterenol at EC90.
Format: cell-based
In short: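 CHO-K1 cells stably expressing receptor, 1500 cells/well, preincubated briefly with 10-point 5-fold compound series (top final typically 10 or 100 μM) in PBS with 1 mM IBMX, then challenged with isoproterenol at EC90 for 1 h at room temperature. cAMP read by HTRF against on-plate standard curve; IC50 from dose-response.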

Sequence of Beta-3 Adrenergic Receptor (P13945 whole entry, species assumed): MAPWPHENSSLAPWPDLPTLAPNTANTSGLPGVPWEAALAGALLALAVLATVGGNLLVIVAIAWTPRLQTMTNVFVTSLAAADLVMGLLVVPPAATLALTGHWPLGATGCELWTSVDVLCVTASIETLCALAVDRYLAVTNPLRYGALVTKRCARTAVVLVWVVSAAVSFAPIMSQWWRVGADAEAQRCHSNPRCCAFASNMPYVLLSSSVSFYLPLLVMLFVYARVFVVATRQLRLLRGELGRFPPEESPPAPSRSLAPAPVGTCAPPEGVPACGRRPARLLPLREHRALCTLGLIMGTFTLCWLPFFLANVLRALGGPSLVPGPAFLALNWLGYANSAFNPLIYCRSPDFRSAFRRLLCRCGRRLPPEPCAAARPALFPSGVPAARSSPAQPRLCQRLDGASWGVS

SMILES	IC50
CNS(=O)(=O)c1cccc(OC[C@@H](O)CNC2COC3(CCN(S(=O)(=O)c4cccc(-c5ccccc5)c4)CC3)C2)c1 (stereo partly drawn) [Compound 31, 3-((2S)-3-(8-(biphenyl-3-ylsulfonyl)-1-oxa-8-azaspiro[4.5]decan-3-ylamino)-2-hydroxypropoxy)-N-methylbenzenesulfonamide]	21 nM
CCc1nc2cc(S(=O)(=O)N3CCC4(CC3)C[C@@H](NC[C@H](O)COc3cccc(S(=O)(=O)NC)c3)CO4)cnc2[nH]1 [Compound 515, 3-((S)-3-((R)-8-(2-ethyl-3H-imidazo[4,5-b]pyridin-6-ylsulfonyl)-1-oxa-8-azaspiro[4.5]decan-3-ylamino)-2-hydroxypropoxy)-N-methylbenzenesulfonamide]	74.9 nM
CCn1cc(-c2cccc(S(=O)(=O)N3CCC4(CC3)CC(NC[C@H](O)COc3cccc(S(=O)(=O)N(C)C)c3)CO4)c2)cn1 (stereo partly drawn) [Compound 272, 3-((2S)-3-(8-(3-(1-ethyl-1H-pyrazol-4-yl)phenylsulfonyl)-1-oxa-8-azaspiro[4.5]decan-3-ylamino)-2-hydroxypropoxy)-N,N-dimethylbenzenesulfonamide]	107 nM
CNS(=O)(=O)c1cccc(OC[C@@H](O)CN[C@H]2COC3(CCN(c4nccc(C(F)(F)F)n4)CC3)C2)c1 [Compound 574, 3-((S)-2-hydroxy-3-((R)-8-(4-(trifluoromethyl)pyrimidin-2-yl)-1-oxa-8-azaspiro[4.5]decan-3-ylamino)propoxy)-N-methylbenzenesulfonamide]	609 nM
CCNS(=O)(=O)c1cccc(OC[C@@H](O)CNC2COC3(CCN(S(=O)(=O)c4ccc(Br)c(C)c4)CC3)C2)c1 (stereo partly drawn) [Compound 227, 3-((2S)-3-(8-(4-bromo-3-methylphenylsulfonyl)-1-oxa-8-azaspiro[4.5]decan-3-ylamino)-2-hydroxypropoxy)-N-ethylbenzenesulfonamide]	31.3 nM
CCN1CCOc2ncc(S(=O)(=O)N3CCC4(CC3)CC(NC[C@H](O)COc3cccc(S(=O)(=O)NC)c3)CO4)cc21 (stereo partly drawn) [Compound 423, 3-((2S)-3-(8-(1-ethyl-2,3-dihydro-1H-pyrido[2,3-b][1,4]oxazin-7-ylsulfonyl)-1-oxa-8-azaspiro[4.5]decan-3-ylamino)-2-hydroxypropoxy)-N-methylbenzenesulfonamide]	12.6 nM
CNS(=O)(=O)c1cccc(OC[C@@H](O)CNC2COC3(CCN(S(=O)(=O)c4cccc(-c5ccc(CNC(=O)C(N)=O)cc5)c4)CC3)C2)c1 (stereo partly drawn) [Compound 354, N^1-((3′-(3-((S)-2-hydroxy-3-(3-(N-methylsulfamoyl)phenoxy)propylamino)-1-oxa-8-azaspiro[4.5]decan-8-ylsulfonyl)biphenyl-4-yl)methyl)oxalamide]	35.2 nM
CNS(=O)(=O)c1cccc(OC[C@@H](O)CNC2COC3(CCN(S(=O)(=O)c4cccc(-c5ccc(CNCC(F)(F)F)cc5)c4)CC3)C2)c1 (stereo partly drawn) [Compound 321, 3-((2S)-2-hydroxy-3-(8-(4′-((2,2,2-trifluoroethylamino)methyl)biphenyl-3-ylsulfonyl)-1-oxa-8-azaspiro[4.5]decan-3-ylamino)propoxy)-N-methylbenzenesulfonamide]	70.5 nM
CCCCCNS(=O)(=O)c1cccc(OC[C@@H](O)CNC2COC3(CCN(S(=O)(=O)c4ccc5ccccc5c4)CC3)C2)c1 (stereo partly drawn) [Compound 3, 3-((2S)-2-hydroxy-3-(8-(naphthalen-2-ylsulfonyl)-1-oxa-8-azaspiro[4.5]decan-3-ylamino)propoxy)-N-pentylbenzenesulfonamide]	133 nM
CNS(=O)(=O)c1cccc(OC[C@@H](O)CNC2COC3(CCN(S(=O)(=O)c4ccc(F)c(C)c4)CC3)C2)c1 (stereo partly drawn) [Compound 149, 3-((2S)-3-(8-(4-fluoro-3-methylphenylsulfonyl)-1-oxa-8-azaspiro[4.5]decan-3-ylamino)-2-hydroxypropoxy)-N-methylbenzenesulfonamide]	20.6 nM
CCNS(=O)(=O)c1cccc(OC[C@@H](O)CN[C@H]2COC3(CCN(S(=O)(=O)c4cnc5c(c4)N(C)CCO5)CC3)C2)c1 [Compound 456, N-ethyl-3-((S)-2-hydroxy-3-((R)-8-(1-methyl-2,3-dihydro-1H-pyrido[2,3-b][1,4]oxazin-7-ylsulfonyl)-1-oxa-8-azaspiro[4.5]decan-3-ylamino)propoxy)benzenesulfonamide]	16.4 nM
CNS(=O)(=O)c1cccc(OC[C@@H](O)CN[C@H]2COC3(CCN(S(=O)(=O)c4cccc5nsnc45)CC3)C2)c1 [Compound 245, 3-((S)-3-((R)-8-(benzo[c][1,2,5]thiadiazol-4-ylsulfonyl)-1-oxa-8-azaspiro[4.5]decan-3-ylamino)-2-hydroxypropoxy)-N-methylbenzenesulfonamide]	15.5 nM
NS(=O)(=O)c1cccc(OC[C@@H](O)CN[C@H]2COC3(CCN(S(=O)(=O)c4ccc5c(c4)CCCC5)CC3)C2)c1 [Compound 556, 3-((S)-2-hydroxy-3-((R)-8-(5,6,7,8-tetrahydronaphthalen-2-ylsulfonyl)-1-oxa-8-azaspiro[4.5]decan-3-ylamino)propoxy)benzenesulfonamide]	48.5 nM
CNS(=O)(=O)c1cccc(OC[C@@H](O)CNC2COC3(CCN(S(=O)(=O)c4cccc(-c5cccc(C(=O)O)c5)c4)CC3)C2)c1 (stereo partly drawn) [Compound 112, 3′-(3-((S)-2-hydroxy-3-(3-(N-methylsulfamoyl)phenoxy)propylamino)-1-oxa-8-azaspiro[4.5]decan-8-ylsulfonyl)biphenyl-3-carboxylic acid]	239 nM
CNS(=O)(=O)c1cccc(OC[C@@H](O)CN[C@@H]2COC3(CCN(S(=O)(=O)c4ccc5c(c4)CCCO5)CC3)C2)c1 [Compound 183, 3—((S)-3-((S)-8-(chroman-6-ylsulfonyl)-1-oxa-8-azaspiro[4.5]decan-3-ylamino)-2-hydroxypropoxy)-N-methylbenzenesulfonamide]	16.4 nM
CNS(=O)(=O)c1cccc(OC[C@@H](O)CN[C@@H]2COC3(CCN(S(=O)(=O)c4cc(C)ccc4F)CC3)C2)c1 [Compound 268, 3-((S)-3-((S)-8-(2-fluoro-5-methylphenylsulfonyl)-1-oxa-8-azaspiro[4.5]decan-3-ylamino)-2-hydroxypropoxy)-N-methylbenzenesulfonamide]	12.3 nM
CCn1cc(-c2cccc(S(=O)(=O)N3CCC4(CC3)C[C@@H](NC[C@H](O)COc3cccc(S(=O)(=O)NC)c3)CO4)c2)cn1 [Compound 283, 3-((S)-3-((R)-8-(3-(1-ethyl-1H-pyrazol-4-yl)phenylsulfonyl)-1-oxa-8-azaspiro[4.5]decan-3-ylamino)-2-hydroxypropoxy)-N-methylbenzenesulfonamide]	84.6 nM
CNS(=O)(=O)c1cccc(OC[C@@H](O)CN[C@H]2COC3(CCN(S(=O)(=O)c4ccc5c(c4)C(=O)C(=O)N5)CC3)C2)c1 [Compound 498, 3-((S)-3-((R)-8-(2,3-dioxoindolin-5-ylsulfonyl)-1-oxa-8-azaspiro[4.5]decan-3-ylamino)-2-hydroxypropoxy)-N-methylbenzenesulfonamide]	117 nM
CNS(=O)(=O)c1cccc(OC[C@@H](O)CNC2COC3(CCN(S(=O)(=O)c4ccc(N(C)C)nc4)CC3)C2)c1 (stereo partly drawn) [Compound 422, 3-((2S)-3-(8-(6-(dimethylamino)pyridin-3-ylsulfonyl)-1-oxa-8-azaspiro[4.5]decan-3-ylamino)-2-hydroxypropoxy)-N-methylbenzenesulfonamide]	16.7 nM
CNS(=O)(=O)c1cccc(OC[C@@H](O)CNC2COC3(CCN(S(=O)(=O)c4ccc(F)cc4F)CC3)C2)c1 (stereo partly drawn) [Compound 134, 3-((2S)-3-(8-(2,4-difluorophenylsulfonyl)-1-oxa-8-azaspiro[4.5]decan-3-ylamino)-2-hydroxypropoxy)-N-methylbenzenesulfonamide]	37.9 nM
CNS(=O)(=O)c1cccc(OC[C@@H](O)CNC2COC3(CCN(c4cc(Cl)ccn4)CC3)C2)c1 (stereo partly drawn) [Compound 433, 3-((2S)-3-(8-(4-chloropyridin-2-yl)-1-oxa-8-azaspiro[4.5]decan-3-ylamino)-2-hydroxypropoxy)-N-methylbenzenesulfonamide]	352 nM
Cc1cccc2c(=O)c(S(=O)(=O)N3CCC4(CC3)C[C@@H](NC[C@H](O)COc3cccc(S(N)(=O)=O)c3)CO4)c[nH]c12 [Compound 553, 3-((S)-2-hydroxy-3-((R)-8-(8-methyl-4-oxo-1,4-dihydroquinolin-3-ylsulfonyl)-1-oxa-8-azaspiro[4.5]decan-3-ylamino)propoxy)benzenesulfonamide]	23.6 nM
CNS(=O)(=O)c1cccc(OC[C@@H](O)CNC2COC3(CCN(S(=O)(=O)CCc4ccncc4)CC3)C2)c1 (stereo partly drawn) [Compound 378, 3-((2S)-2-hydroxy-3-(8-(2-(pyridin-4-yl)ethylsulfonyl)-1-oxa-8-azaspiro[4.5]decan-3-ylamino)propoxy)-N-methylbenzenesulfonamide]	131 nM
CN(C)S(=O)(=O)c1cccc(OC[C@@H](O)CNC2COC3(CCN(S(=O)(=O)c4ccc5c(c4)NC(=O)CO5)CC3)C2)c1 (stereo partly drawn) [Compound 250, 3-((2S)-2-hydroxy-3-(8-(3-oxo-3,4-dihydro-2H-benzo[b][1,4]oxazin-6-ylsulfonyl)-1-oxa-8-azaspiro[4.5]decan-3-ylamino)propoxy)-N,N-dimethylbenzenesulfonamide]	24.2 nM
CNS(=O)(=O)c1cccc(OC[C@@H](O)CN[C@@H]2COC3(CCN(S(=O)(=O)c4ccc(Br)c(C)c4)CC3)C2)c1 [Compound 270, 3-((S)-3-((S)-8-(4-bromo-3-methylphenylsulfonyl)-1-oxa-8-azaspiro[4.5]decan-3-ylamino)-2-hydroxypropoxy)-N-methylbenzenesulfonamide]	16.7 nM
CNS(=O)(=O)c1cccc(OC[C@@H](O)CN[C@H]2COC3(CCN(S(=O)(=O)c4cccc(-c5ccc(CC#N)cc5)c4)CC3)C2)c1 [Compound 294, 3-((S)-3-((R)-8-(4′-(cyanomethyl)biphenyl-3-ylsulfonyl)-1-oxa-8-azaspiro[4.5]decan-3-ylamino)-2-hydroxypropoxy)-N-methylbenzenesulfonamide]	56.2 nM
